Patent US8809341B2, “2,4-pyrimidinediamine compounds and uses as anti-proliferative agents” (Rigel Pharmaceuticals, Inc., priority 2003, dated 2014)

Experiments:
H1299 cells = experiment: in vitro antiproliferation assay, H1299 (lung); assay type: cell-based
Method: (§1) The IC50 values of various compounds against a various different tumor cell lines were determined using standard in vitro antiproliferation assays. The tumor cell lines tested were as follows: A549 (lung); H1299 (lung), ACHN (kidney/p53 wt), CAKI (renal cell carcinoma), NCI-H460 (lung); HCT116 (colon/p53w0; HELA (cervix/p53 wt), HUH7 (liver/p53 wt), HUVEC (primary endothelial), LNCAP (prostate), HT-29 (colon); MCF-7 (breast); MCF-7 (breast/ER positive), MDA MB435S (breast); MDA MB231 (breast/ER negative), DU145 (prostate); BxPC-3 (pancreatic); SKOV-3 (ovarian); HepG2 (hepatic), NDHF primary normal human dermal fibroblast), SKMEL28 (breast/p53mut), SKMEL5 (breast/p53 wt), U20S (bone) and PC3 (prostate). […] A blank indicates the specified compound was not tested against the specified cell line.

A549 cells = experiment: in vitro antiproliferation assay, A549 (lung); assay type: cell-based
Method: as §1

[1] = in vitro antiproliferation, H1299 (lung) cells, Table 4, compounds with no designated stereochemistry tested as racemate
[2] = in vitro antiproliferation, A549 (lung) cells, Table 4, compounds with no designated stereochemistry tested as racemate
[3] = IC50 class against H1299 (lung) tumor cells
[4] = IC50 class against A549 (lung) tumor cells
[5] = A549 (lung) cells, antiproliferation

Compound	IC50 (H1299 cells; [3]) [µM]	IC50 (A549 cells; [4]) [µM]	IC50 (A549 cells; [5]) [µM]	further results
O=C1Nc2cc(Nc3nc(Nc4cccc(-c5ncco5)c4)ncc3F)ccc2OC1CCO (racemic) [compound 237]	–	–	–	IC50 (H1299 cells; [1]): ≤ 20 µM; IC50 (A549 cells; [2]): ≤ 20 µM
O=C1Nc2cc(Nc3nc(Nc4cccc(-c5cnco5)c4)ncc3F)ccc2OC1CCO (racemic) [compound 238]	–	–	–	IC50 (H1299 cells; [1]): ≤ 20 µM; IC50 (A549 cells; [2]): ≤ 20 µM
COc1cc(Nc2ncc(F)c(Nc3ccc4c(c3)NC(=O)C(C)S4(=O)=O)n2)cc(OC)c1 (racemic) [compound 250]	–	–	–	IC50 (H1299 cells; [1]): ≤ 20 µM; IC50 (A549 cells; [2]): ≤ 20 µM
Cc1cc(C)cc(Nc2ncc(F)c(Nc3ccc4c(c3)NC(=O)C(C)S4(=O)=O)n2)c1 (racemic) [compound 251]	–	–	–	IC50 (H1299 cells; [1]): ≤ 20 µM; IC50 (A549 cells; [2]): ≤ 20 µM
COc1ccc(Nc2ncc(F)c(Nc3ccc4c(c3)NC(=O)C(C)S4)n2)cc1F (racemic) [compound 288]	–	–	–	IC50 (H1299 cells; [1]): ≤ 20 µM; IC50 (A549 cells; [2]): ≤ 20 µM
CNC(=O)COc1cccc(Nc2ncc(F)c(NC3CCC3)n2)c1 [compound 109]	≤ 20	≤ 20	–	–
CCOC(=O)N1CCN(c2ccc(Nc3ncc(F)c(N(C)C4CCC4)n3)cc2)CC1 [compound 126]	≤ 20	≤ 20	–	–
CN(c1nc(Nc2cccc(N3CCOCC3)c2)ncc1F)C1CCC1 [compound 127]	≤ 20	≤ 20	–	–
CC(=O)N1CCN(c2cccc(Nc3ncc(F)c(N(C)C4CCC4)n3)c2)CC1 [compound 128]	≤ 20	≤ 20	–	–
CN1CCN(c2cccc(Nc3ncc(F)c(N(C)C4CCC4)n3)c2)CC1 [compound 129]	≤ 20	≤ 20	–	–
CCOC(=O)N1CCN(c2cccc(Nc3ncc(F)c(N(C)C4CCC4)n3)c2)CC1 [compound 130]	≤ 20	≤ 20	–	–
O=C(Nc1ccc(Nc2ncc(F)c(NC3CCC3)n2)cc1)c1ccccc1 [compound 131]	≤ 20	≤ 20	–	–
Fc1cnc(Nc2ccc(N3CCOCC3)cc2)nc1NC1CCC1 [compound 132]	≤ 20	≤ 20	–	–
CC(=O)N1CCN(c2ccc(Nc3ncc(F)c(NC4CCCC4)n3)cc2)CC1 [compound 133]	≤ 20	≤ 20	–	–
Cc1cc(C)cc(Nc2ncc(F)c(Nc3ccc4c(c3)NC(=O)C(C)O4)n2)c1 (centres unmarked) [compound 230]	–	–	–	IC50 (H1299 cells; [1]): ≤ 20 µM
COc1cc(Nc2ncc(F)c(Nc3cc(OC)cc(OC)c3)n2)cc(OC)c1 [compound 840]	–	–	–	IC50 (H1299 cells; H1299 (lung) cells, in vitro antiproliferation): ≤ 20 µM
NC(=O)COc1ccc(Nc2ncc(F)c(Nc3ccc(OCC(N)=O)cc3)n2)cc1 [compound 971]	–	–	> 20	–
CC(C)(CC1CCC1)n1ncc2ccc(Nc3ncc(F)c(Nc4ccc(Cl)c(Cl)c4)n3)cc21 [compound 1103]	–	–	–	IC50 (H1299 cells; H1299 (lung) cells): > 20 µM
Cn1nc(-c2ccccc2)cc1Nc1nc(Nc2cccc(-c3ncco3)c2)ncc1F [compound 1161]	–	–	–	IC50 (A549 cells; Homo sapiens, A549 (lung) cells): ≤ 20 µM

Now from value to molecule, other results behind:

IC50 (H1299 cells; [3]) [µM]	IC50 (A549 cells; [4]) [µM]	IC50 (A549 cells; [5]) [µM]	Compound	further results
–	–	> 20	COC(=O)COc1ccc(Nc2nc(Nc3ccc(OCC(N)=O)cc3)ncc2F)cc1 [compound 973]	–
–	–	> 20	COC(=O)COc1cccc(Nc2ncc(F)c(Nc3cccc(O)c3)n2)c1 [compound 976]	–
–	–	> 20	COC(=O)COc1cccc(Nc2ncc(F)c(Nc3ccc(OC(C)C)cc3)n2)c1 [compound 977]	–
–	–	< 20	Oc1ccc(Nc2ncc(F)c(Nc3ccc(O)c(C(F)(F)F)c3)n2)cc1C(F)(F)F [compound 996]	–
–	–	≤ 20	Cc1cccc(Nc2ncc(F)c(Nc3cccc(C)c3)n2)c1 [compound 997]	–
–	–	> 20	Cc1ccc(Nc2ncc(F)c(Nc3ccc(C)cc3)n2)cc1 [compound 998]	–
–	–	> 20	CNC(=O)COc1cccc(Nc2ncc(F)c(Nc3ccc(OCCC(=O)OC)cc3)n2)c1 [compound 1002]	–
–	–	> 20	CCOC(=O)CCOc1ccc(Nc2nc(Nc3cccc(OCC(=O)NC)c3)ncc2F)cc1 [compound 1003]	–
–	–	> 20	CNC(=O)COc1cccc(Nc2ncc(F)c(Nc3ccc(O)cc3)n2)c1 [compound 1004]	–
–	> 20	–	C=CCNc1ncc(F)c(Nc2ccc3c(c2)OCCO3)n1 [compound 1037]	–
–	> 20	–	COc1ccc(Nc2ncc(F)c(Nc3ccc4c(c3)OCCO4)n2)c(OC)c1 [compound 1045]	–
